In patent US20100041892A1, “Therapeutic agent for diabetes” (priority 2005, published 2010):
Read-outs that look alike come from different tables or passages of the source.

Assays:
[1] = biological target: T1, PPARγ-RXRα heterodimer (Homo sapiens, UniProt P37231); assay: PPARγ-RXRα heterodimer ligand activity (luciferase reporter, PPARγ:RXRα:4ERPP/CHO-K1 cells); assay type: cell-based; settings: concentration showing 50% of the maximum luciferase induction rate; CHO-K1 reporter cells, one day incubation
T1 construct: expressed in transfected cells; host or cells: CHO-K1 (PPARγ:RXRα:4ERPP/CHO-K1)
T1 sequence (P37231 1-477 isoform P37231-2): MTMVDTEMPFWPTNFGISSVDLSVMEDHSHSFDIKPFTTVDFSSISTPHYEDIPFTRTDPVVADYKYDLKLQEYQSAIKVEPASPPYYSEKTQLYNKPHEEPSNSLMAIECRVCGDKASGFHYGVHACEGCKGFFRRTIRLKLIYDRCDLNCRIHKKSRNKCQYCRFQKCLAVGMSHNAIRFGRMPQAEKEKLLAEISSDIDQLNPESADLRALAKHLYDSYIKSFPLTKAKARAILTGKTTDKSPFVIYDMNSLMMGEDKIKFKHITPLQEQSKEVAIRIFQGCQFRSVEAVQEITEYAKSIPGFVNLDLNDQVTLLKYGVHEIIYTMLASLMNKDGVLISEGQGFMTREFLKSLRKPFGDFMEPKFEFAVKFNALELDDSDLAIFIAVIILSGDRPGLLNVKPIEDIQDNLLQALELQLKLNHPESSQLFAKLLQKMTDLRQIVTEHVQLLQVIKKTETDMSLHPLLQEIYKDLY
T1 sequence (P19793 1-462 partner): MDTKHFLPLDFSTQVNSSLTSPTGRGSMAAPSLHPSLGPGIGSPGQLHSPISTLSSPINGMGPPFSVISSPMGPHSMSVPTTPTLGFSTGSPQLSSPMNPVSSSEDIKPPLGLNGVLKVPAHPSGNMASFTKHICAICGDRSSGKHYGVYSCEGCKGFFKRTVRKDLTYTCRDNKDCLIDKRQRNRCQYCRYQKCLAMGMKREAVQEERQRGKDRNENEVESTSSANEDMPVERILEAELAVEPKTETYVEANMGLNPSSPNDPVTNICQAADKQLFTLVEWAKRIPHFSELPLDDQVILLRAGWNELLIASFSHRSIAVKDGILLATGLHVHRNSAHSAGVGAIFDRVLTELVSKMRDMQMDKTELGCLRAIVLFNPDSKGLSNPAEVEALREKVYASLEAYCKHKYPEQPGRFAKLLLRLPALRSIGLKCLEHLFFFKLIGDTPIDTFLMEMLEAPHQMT
Method in brief: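 CHO-K1 cells expressing PPARγ:RXRα with a 4ERPP reporter were exposed to compound for one day at 37° C in Ham F12 containing 0.1% fatty acid-free BSA, then read for luciferase. Induction rate was taken relative to untreated cells as 1, and EC50 is the concentration giving 50% of maximal induction.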

[2] = test system: KKAy mice; assay: Blood glucose and blood lipid (triglyceride) lowering action in mice; assay type: in vivo; settings: Mus musculus, 4TO7, po, 4 to 7 days; for response vs control in vivo at 0.01 %: 0.01% in powder diet; for response vs control in vivo at 0.03 %: 0.03% in powder diet
Text: The test compound was mixed with a powder diet (CE-2, CLEA JAPAN, INC.) at a proportion of 0.01% (0.03% for the compounds of Examples 1, 2, 12, 81, 94, 96, 129 and 143, and 0.005% for the compounds of Examples 28, 30 and 37) and freely given to KKAy mice (9 to 14-week-old, 5 mice per group) which are obesity non-insulin-dependent diabetes (type-2 diabetes) models, for 4 to 7 days. During this period, water was freely given. The blood was drawn from the orbital venous plexus. Glucose and triglyceride in the plasma separated from the blood were quantitated using L Type Wako Glu2 (Wako Pure Chemical Industries, Ltd.) and L Type Wako TG·H (Wako Pure Chemical Industries, Ltd.), respectively, according to an enzyme method.

[3] = plasma glucose relative to non-administration group = 100%, read-out: hypoglycemic action (%)
[4] = plasma triglyceride relative to non-administration group = 100%, read-out: hypolipidemic action (%)

| Structure (SMILES) | melting point [°C] | EC50 [1] [nM] | response vs control in vivo at 0.01 % [2, 3] [%] | response vs control in vivo at 0.01 % [2, 4] [%] | response vs control in vivo at 0.03 % [2, 3] [%] | response vs control in vivo at 0.03 % [2, 4] [%] |
| --- | --- | --- | --- | --- | --- | --- |
| CCCCCS(=O)(=O)NC(=O)/C=C/c1ccc(OCCC2OCCO2)cc1Oc1ncc(C(F)(F)F)cc1Cl [Example 196, (2E)-3-[2-{[3-chloro-5-(trifluoromethyl)pyridin-2-yl]oxy}-4-[2-(1,3-dioxolan-2-yl)ethoxy]phenyl)-N-(pentylsulfonyl)acrylamide] | 116 to 118 | 4.4 | 54 | 79 | – | – |
| CCCCCS(=O)(=O)NC(=O)/C(=C/c1ccc(OCCOC)cc1Oc1ncc(C(F)(F)F)cc1Cl)CC [Example 183, (2E)-2-[2-{[3-chloro-5-(trifluoromethyl)pyridin-2-yl]oxy}-4-(2-methoxyethoxy)benzylidene]-N-(pentylsulfonyl)butanamide] | 104.5 to 105.6 | 3.8 | 48 | 44 | – | – |
| CCCCCS(=O)(=O)NC(=O)/C=C/c1ccc(OC(COCC)COCC)cc1Oc1ncc(C(F)(F)F)cc1Cl [Example 198, (2E)-3-{2-{[3-chloro-5-(trifluoromethyl)pyridin-2-yl]oxy}-4-[2-ethoxy-1-(ethoxymethyl)ethoxy]phenyl}-N-(pentylsulfonyl)acrylamide] | 83 to 85.5 | 7.8 | 62 | 84 | – | – |
| CCCCCS(=O)(=O)NC(=O)/C=C/c1cc(OCC2CC2)nn1Cc1ccc(C(F)(F)F)cc1Cl [Example 151, (2E)-3-[1-[2-chloro-4-(trifluoromethyl)benzyl]-3-(cyclopropylmethoxy)-1H-pyrazol-5-yl]-N-(pentylsulfonyl)acrylamide] | 148 to 151 | 7.2 | 59 | 73 | – | – |
| CC(C)CCS(=O)(=O)NC(=O)/C=C/c1cc(OCC2CC2)nn1Cc1ccc(C(F)(F)F)cc1Cl [Example 26, (2E)-3-[1-[2-chloro-4-(trifluoromethyl)benzyl]-3-(cyclopropylmethoxy)-1H-pyrazol-5-yl]-N-[(3-methylbutyl)sulfonyl]acrylamide] | 155.5 to 157.5 | 4.6 | 50 | 62 | – | – |
| COCCOc1ccc(CCCOC(=O)NS(=O)(=O)NC2CCC(C)CC2)c(Oc2ncc(C(F)(F)F)cc2Cl)c1 (centres unmarked) [Example 205, 3-[2-{[3-chloro-5-(trifluoromethyl)pyridin-2-yl]oxy}-4-(2-methoxyethoxy)phenyl]propyl {[(4-methylcyclohexyl)amino]sulfonyl}carbamate] | 121.5 to 121.8 | 3.1 | 54 | 50 | – | – |
| CCCCCS(=O)(=O)NC(=O)/C=C/c1ccc(Oc2ncccn2)cc1Oc1ncc(C(F)(F)F)cc1Cl [Example 197, (2E)-3-[2-{[3-chloro-5-(trifluoromethyl)pyridin-2-yl]oxy}-4-(pyrimidin-2-yloxy)phenyl]-N-(pentylsulfonyl)acrylamide] | 80.5 to 82.5 | 28 | 58 | 87 | – | – |
| COCCOc1ccc(CCCOC(=O)NS(=O)(=O)NCCc2cccs2)c(Oc2ncc(C(F)(F)F)cc2Cl)c1 [Example 207, 3-[2-{[3-chloro-5-(trifluoromethyl)pyridin-2-yl]oxy}-4-(2-methoxyethoxy)phenyl]propyl ({[2-(2-thienyl)ethyl]amino}sulfonyl)carbamate] | 117.5 to 118 | 0.99 | 54 | 43 | – | – |
| COCCOc1ccc(CCCOC(=O)NS(=O)(=O)NCCOC(C)C)c(Oc2ncc(Cl)cc2Cl)c1 [Example 429, 3-[2-[(3,5-dichloropyridin-2-yl)oxy]-4-(2-methoxyethoxy)phenyl]propyl {[(2-isopropoxyethyl)amino]sulfonyl}carbamate] | 87.5 to 88.4 | 3.8 | 51 | 60 | – | – |
| COCCOc1ccc(/C=C/COC(=O)NS(=O)(=O)N2CCCC2)c(Oc2ncc(C(F)(F)F)cc2Cl)c1 [Example 437, (2E)-3-[2-{[3-chloro-5-(trifluoromethyl)pyridin-2-yl]oxy}-4-(2-methoxyethoxy)phenyl]prop-2-en-1-yl (pyrrolidin-1-ylsulfonyl)carbamate] | 123 to 124 | 54 | 45 | 58 | – | – |
| COCCOc1ccc(CCCOC(=O)NS(=O)(=O)NCCc2ccccn2)c(Oc2ncc(C(F)(F)F)cc2Cl)c1 [Example 208, 3-[2-{[3-chloro-5-(trifluoromethyl)pyridin-2-yl]oxy}-4-(2-methoxyethoxy)phenyl]propyl {[(2-pyridin-2-ylethyl)amino]sulfonyl}carbamate] | 91 to 93 | 4 | 70 | 71 | – | – |
| CCCCCS(=O)(=O)NC(=O)C(C)(C)Cc1ccc(OCCOC)cc1Oc1ncc(C(F)(F)F)cc1Cl [Example 252, 3-[2-{[3-chloro-5-(trifluoromethyl)pyridin-2-yl]oxy}-4-(2-methoxyethoxy)phenyl]-2,2-dimethyl-N-(pentylsulfonyl)propanamide] | – | 3.1 | 46 | 20 | – | – |
| CCCCCS(=O)(=O)NC(=O)OCc1ccc(OCCOC)cc1Oc1ncc(C(F)(F)F)cc1Cl [Example 58, 2-{[3-chloro-5-(trifluoromethyl)pyridin-2-yl]oxy}-4-(2-methoxyethoxy)benzyl (pentylsulfonyl)carbamate] | – | 10 | 64 | 73 | – | – |
| CCCCCS(=O)(=O)NC(=O)/C=C/c1cc(OC(C)C)nn1Cc1ccc(Cl)cc1Cl [Example 94, (2E)-3-[1-(2,4-dichlorobenzyl)-3-isopropoxy-1H-pyrazol-5-yl]-N-(pentylsulfonyl)acrylamide] | – | 20 | – | – | 48 | 79 |
| CC(C)CCS(=O)(=O)NC(=O)/C=C/c1cc(OC(C)C)nn1Cc1ccc(C(F)(F)F)cc1Cl [Example 112, (2E)-3-{1-[2-chloro-4-(trifluoromethyl)benzyl]-3-isopropoxy-1H-pyrazol-5-yl}-N-[(3-methylbutyl)sulfonyl]acrylamide] | – | 8.3 | 53 | 70 | – | – |
| CCCCCS(=O)(=O)NC(=O)/C=C/c1ccc(OCCOC)cc1Oc1ncc(C(F)(F)F)cc1Cl [Example 12, (2E)-3-[2-{[3-chloro-5-(trifluoromethyl)pyridin-2-yl]oxy}-4-(2-methoxyethoxy)phenyl]-N-(pentylsulfonyl)acrylamide] | – | 15 | – | – | 46 | 43 |
| CCCCCS(=O)(=O)NC(=O)/C=C/c1ccc(OCCOC2CC2)cc1Oc1ncc(C(F)(F)F)cc1Cl [Example 424, (2E)-3-{2-{[3-chloro-5-(trifluoromethyl)pyridin-2-yl]oxy}-4-[2-(cyclopropyloxy)ethoxy]phenyl}-N-(pentylsulfonyl)acrylamide] | – | 6.2 | 70 | 18 | – | – |
